We go through four molecules from ChEMBL document CHEMBL4422623, “Synthesis of spiro-2,6-dioxopiperazine and spiro-2,6-dioxopyrazine scaffolds using amino acids in a three-component reaction to generate potential Sigma-1 (σ1) receptor selective ligands” (Eur J Med Chem, 2019).

For orientation: Ki means a measure of affinity in units of concentration, obtained from inhibition or displacement.

The target in one assay is Mu-type opioid receptor (Homo sapiens, UniProt P35372). The assay is described as follows: Displacement of [3H]DAMGO from human mu opioid receptor expressed in HEK cells by radioligand binding assay. The class given is cell-based. (In general: Loss of bound radioactivity is the signal in a displacement assay; it reports binding, not function.)
Sequence of Mu-type opioid receptor (P35372 whole entry): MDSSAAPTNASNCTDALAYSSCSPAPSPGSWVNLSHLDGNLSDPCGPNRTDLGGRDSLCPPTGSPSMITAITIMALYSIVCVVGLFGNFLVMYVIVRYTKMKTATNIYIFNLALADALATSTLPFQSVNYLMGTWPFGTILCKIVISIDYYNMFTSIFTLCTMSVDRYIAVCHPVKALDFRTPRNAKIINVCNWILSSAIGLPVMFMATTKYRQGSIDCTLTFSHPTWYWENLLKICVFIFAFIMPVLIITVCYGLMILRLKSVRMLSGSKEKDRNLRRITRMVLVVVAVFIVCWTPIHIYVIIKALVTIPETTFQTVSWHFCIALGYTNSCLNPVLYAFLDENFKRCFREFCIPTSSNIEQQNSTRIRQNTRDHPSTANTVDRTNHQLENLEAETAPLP
Assay [1] addresses 5-hydroxytryptamine receptor 2B (Homo sapiens, UniProt P41595). In words: Displacement of [3H]LSD from human 5-HT2B receptor expressed in HEK cells by radioligand binding assay. The class given is cell-based.
Assay [2] deals with Sodium-dependent dopamine transporter (Homo sapiens, UniProt Q01959). The assay is described as follows: Displacement of [3H]WIN35428 from human DAT receptor expressed in HEK cells by radioligand binding assay. The class given is cell-based.
Sequence of Sodium-dependent dopamine transporter (Q01959 whole entry): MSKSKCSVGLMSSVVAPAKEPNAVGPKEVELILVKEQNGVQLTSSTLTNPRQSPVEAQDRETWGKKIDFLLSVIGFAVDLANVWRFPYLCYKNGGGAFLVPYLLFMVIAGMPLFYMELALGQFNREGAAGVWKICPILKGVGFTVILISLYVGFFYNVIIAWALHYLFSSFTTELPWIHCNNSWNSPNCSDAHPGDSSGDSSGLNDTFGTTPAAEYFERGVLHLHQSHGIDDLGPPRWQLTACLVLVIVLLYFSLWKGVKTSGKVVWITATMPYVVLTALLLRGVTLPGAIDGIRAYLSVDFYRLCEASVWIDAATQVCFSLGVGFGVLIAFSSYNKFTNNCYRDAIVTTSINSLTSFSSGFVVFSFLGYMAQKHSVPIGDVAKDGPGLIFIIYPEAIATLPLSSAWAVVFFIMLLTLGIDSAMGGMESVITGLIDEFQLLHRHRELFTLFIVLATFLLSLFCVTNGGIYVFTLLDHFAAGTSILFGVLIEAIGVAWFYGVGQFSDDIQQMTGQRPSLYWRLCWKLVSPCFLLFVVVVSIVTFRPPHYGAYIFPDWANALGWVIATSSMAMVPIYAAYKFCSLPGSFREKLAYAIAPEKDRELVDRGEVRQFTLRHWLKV
Assay [3] deals with T1, Sigma intracellular receptor 2 (Rattus norvegicus, UniProt Q5U3Y7).
T1 sequence (Q5U3Y7 whole entry): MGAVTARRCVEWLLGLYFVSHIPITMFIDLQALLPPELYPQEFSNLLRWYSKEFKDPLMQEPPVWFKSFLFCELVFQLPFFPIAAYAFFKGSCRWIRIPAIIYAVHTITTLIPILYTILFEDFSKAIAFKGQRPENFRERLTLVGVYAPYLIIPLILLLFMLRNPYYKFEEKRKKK
The assay is described as follows: Displacement of [3H]DTG from sigma-2 receptor in rat PC12 cells by radioligand binding assay. The class given is cell-based.

Assay [4] deals with T2, Alpha-2A adrenergic receptor (Homo sapiens, UniProt P08913).
T2 sequence (P08913 whole entry): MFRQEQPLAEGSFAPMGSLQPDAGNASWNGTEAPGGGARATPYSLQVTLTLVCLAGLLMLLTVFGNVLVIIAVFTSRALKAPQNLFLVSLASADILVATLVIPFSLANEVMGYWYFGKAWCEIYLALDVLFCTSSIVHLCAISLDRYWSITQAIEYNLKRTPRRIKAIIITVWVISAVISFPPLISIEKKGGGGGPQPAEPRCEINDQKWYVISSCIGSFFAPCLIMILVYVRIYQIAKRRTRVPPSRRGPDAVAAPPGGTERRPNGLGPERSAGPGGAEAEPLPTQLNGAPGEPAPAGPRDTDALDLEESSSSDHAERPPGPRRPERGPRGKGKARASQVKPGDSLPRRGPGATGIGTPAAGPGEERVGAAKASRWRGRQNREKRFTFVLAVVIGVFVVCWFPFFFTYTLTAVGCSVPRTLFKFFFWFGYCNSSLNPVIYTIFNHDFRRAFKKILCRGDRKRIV
In words: Displacement of […] from human adrenergic alpha 2A receptor expressed in MDCK cells by radioligand binding assay. The class given is cell-based.

The target of assay [5] is 5-hydroxytryptamine receptor 7 (Homo sapiens, UniProt P34969). The assay is described as follows: Displacement of [3H]LSD from human 5-HT7 receptor expressed in HEK cells by radioligand binding assay. Format: cell-based.
Sequence of 5-hydroxytryptamine receptor 7 (P34969 whole entry): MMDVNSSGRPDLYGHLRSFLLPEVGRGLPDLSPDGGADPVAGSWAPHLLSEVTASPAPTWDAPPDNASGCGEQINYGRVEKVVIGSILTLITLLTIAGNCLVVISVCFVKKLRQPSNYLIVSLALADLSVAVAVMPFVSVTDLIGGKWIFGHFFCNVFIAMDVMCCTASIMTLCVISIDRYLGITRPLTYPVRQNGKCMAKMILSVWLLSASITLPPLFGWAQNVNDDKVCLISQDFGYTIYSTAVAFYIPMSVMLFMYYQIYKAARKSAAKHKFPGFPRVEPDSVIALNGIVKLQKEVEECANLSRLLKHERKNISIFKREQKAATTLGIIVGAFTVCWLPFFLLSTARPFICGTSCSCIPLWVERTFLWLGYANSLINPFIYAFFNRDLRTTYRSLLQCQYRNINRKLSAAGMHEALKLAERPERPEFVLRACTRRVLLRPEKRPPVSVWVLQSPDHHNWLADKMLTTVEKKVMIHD
Assay [6] deals with Sigma non-opioid intracellular receptor 1 (Cavia porcellus, UniProt Q60492). In words: Displacement of [3H]Pentazocine from guinea pig sigma-1 receptor by radioligand binding assay.
Sequence of Sigma non-opioid intracellular receptor 1 (Q60492 whole entry): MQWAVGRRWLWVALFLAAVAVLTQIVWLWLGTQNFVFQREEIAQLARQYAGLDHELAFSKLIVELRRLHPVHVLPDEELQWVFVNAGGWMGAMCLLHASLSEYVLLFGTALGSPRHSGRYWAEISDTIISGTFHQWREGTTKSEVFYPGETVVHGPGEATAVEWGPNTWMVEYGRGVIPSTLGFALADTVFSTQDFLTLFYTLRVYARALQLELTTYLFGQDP
The next assay has as its target Histamine H2 receptor (Homo sapiens, UniProt P25021). The assay is described as follows: Binding affinity to human histamine 2 receptor expressed in HEK cells by radioligand binding assay. Format: cell-based.
Another assay concerns the target T3, D(4) dopamine receptor (Homo sapiens, UniProt P21917).
T3 sequence (P21917 whole entry): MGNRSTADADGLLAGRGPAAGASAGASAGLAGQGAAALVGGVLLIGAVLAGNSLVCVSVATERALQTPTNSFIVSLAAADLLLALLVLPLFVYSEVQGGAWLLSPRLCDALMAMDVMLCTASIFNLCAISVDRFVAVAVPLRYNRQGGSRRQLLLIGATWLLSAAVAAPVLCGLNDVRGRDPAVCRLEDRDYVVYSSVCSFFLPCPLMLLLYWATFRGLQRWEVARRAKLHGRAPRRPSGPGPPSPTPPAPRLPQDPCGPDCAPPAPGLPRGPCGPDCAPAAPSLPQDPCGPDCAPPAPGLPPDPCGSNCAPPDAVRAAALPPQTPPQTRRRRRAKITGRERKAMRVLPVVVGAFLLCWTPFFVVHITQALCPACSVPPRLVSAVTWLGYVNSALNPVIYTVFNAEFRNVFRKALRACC
The assay is described as follows: Displacement of [3H]N-methylspiperone from human D4 receptor by radioligand binding assay.

For assay [7], the target named is Kappa-type opioid receptor (Homo sapiens, UniProt P41145). In words: Displacement of [3H]U69593 from human kappa opioid receptor expressed in HEK cells by radioligand binding assay. The class given is cell-based.
Sequence of Kappa-type opioid receptor (P41145 whole entry): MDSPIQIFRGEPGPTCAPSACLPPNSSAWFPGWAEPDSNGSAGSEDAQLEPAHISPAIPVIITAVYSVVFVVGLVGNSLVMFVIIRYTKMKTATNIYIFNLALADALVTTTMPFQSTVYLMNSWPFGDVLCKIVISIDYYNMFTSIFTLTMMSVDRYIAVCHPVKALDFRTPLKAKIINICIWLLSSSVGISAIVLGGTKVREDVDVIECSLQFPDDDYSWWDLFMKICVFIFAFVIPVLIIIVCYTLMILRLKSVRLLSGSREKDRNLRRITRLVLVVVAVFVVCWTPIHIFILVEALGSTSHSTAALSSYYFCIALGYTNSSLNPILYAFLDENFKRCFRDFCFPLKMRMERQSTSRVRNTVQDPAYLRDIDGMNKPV

Each structure is given as a SMILES string.

Sequence of 5-hydroxytryptamine receptor 2B (P41595 whole entry): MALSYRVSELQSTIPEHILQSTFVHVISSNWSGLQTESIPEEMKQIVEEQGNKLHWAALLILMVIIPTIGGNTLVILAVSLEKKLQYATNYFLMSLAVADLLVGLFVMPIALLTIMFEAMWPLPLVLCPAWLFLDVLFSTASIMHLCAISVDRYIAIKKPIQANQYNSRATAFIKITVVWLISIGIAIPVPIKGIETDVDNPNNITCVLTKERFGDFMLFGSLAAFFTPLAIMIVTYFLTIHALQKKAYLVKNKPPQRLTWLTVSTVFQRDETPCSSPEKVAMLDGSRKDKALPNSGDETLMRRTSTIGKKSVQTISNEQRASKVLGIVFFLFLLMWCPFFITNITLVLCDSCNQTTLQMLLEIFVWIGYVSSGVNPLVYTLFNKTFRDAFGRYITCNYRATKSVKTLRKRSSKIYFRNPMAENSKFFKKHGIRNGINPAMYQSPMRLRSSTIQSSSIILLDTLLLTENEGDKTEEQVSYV
Sequence of Histamine H2 receptor (P25021 whole entry): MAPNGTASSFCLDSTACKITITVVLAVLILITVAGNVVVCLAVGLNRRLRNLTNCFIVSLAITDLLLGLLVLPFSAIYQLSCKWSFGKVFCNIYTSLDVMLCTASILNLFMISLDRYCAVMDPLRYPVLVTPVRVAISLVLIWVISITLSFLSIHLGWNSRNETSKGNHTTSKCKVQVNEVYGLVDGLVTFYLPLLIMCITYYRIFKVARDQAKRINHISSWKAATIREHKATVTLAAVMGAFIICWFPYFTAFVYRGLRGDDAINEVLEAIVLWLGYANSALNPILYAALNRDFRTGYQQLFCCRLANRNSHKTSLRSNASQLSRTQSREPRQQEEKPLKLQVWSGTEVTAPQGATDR

In the case of `Cc1cccc(C)c1N1C(=O)CNC2(CCN(C)CC2)C1=O`, the Ki at Mu-type opioid receptor was 10 µM; in assay [1] it was 0.742 µM.
Regarding `CC1=NC2(CCN(C)CC2)C(=O)N(c2c(C)cccc2C)C1=O`, the Ki is 2.56 µM in [2]; 0.696 µM in assay [3]; 3.36 µM in assay [4]; 2.77 µM in [5]; 0.231 µM in assay [1]; 0.0086 µM in assay [6]. Moreover, the Ki at Histamine H2 receptor was 0.823 µM; at D(4) dopamine receptor it was 1.28 µM; in assay [7], 1.71 µM.
For the molecule `Cc1cccc(C)c1N1C(=O)[C@H](CO)NC2(CCN(C)CC2)C1=O`, the Ki was determined as 1.63 µM on Mu-type opioid receptor and 2.05 µM in assay [1].
Consider `Cc1cccc(C)c1N1C(=O)[C@H](CC2CNc3ccccc32)NC2(CCN(C)CC2)C1=O` (stereo partly specified), for which the values for the Ki (on Mu-type opioid receptor; in assay [1]; on Histamine H2 receptor) were 0.993 µM, 0.84 µM and 0.546 µM, respectively.
